This is an account of results in paper PMC7722985 (Biochemistry, 2015).

Experiment [1] concerns Taz2 domain of p300 (A1723-K1812/C1738A, C1746A, C1789A, C1790A). The experiment in a line: ITC binding of p53. The note with it: for Ka: ITC, 20 mM Tris-HCl (pH 7.2), 100 mM NaCl, 2 mM β-mercaptoethanol, 35 °C, 1:1 binding model, performed at least twice, ND = No binding was detected.
The test system of another experiment is p300 Taz2. Conditions: cited from earlier work.
Another experiment relates to CBP Taz2. The note with it: α1, α2, α3 surface of Taz2; cited from earlier work.
In experiment [2] the test system is Taz2 domain of p300. The experiment in a line: Salt dependence of p53. Conditions: ITC at 35 °C; similar pH values; 100 mM acetate as opposed to 100 mM NaCl. Type of experiment: binding.
For the next experiment, the system named is Taz2 R1731A. Description: ITC binding of p53. Conditions: ITC at 35 °C.
The next experiment relates to Taz2 S1741D. Description: ITC binding of p53. Conditions: ITC at 35 °C.
For experiment [3], the system named is Taz2 domain of p300. Description: pH dependence of p53 binding to Taz2 by ITC. The note with it: between pH 5.9 and 6.8; ITC at 35 °C; 100 mM Tris, 100 mM Bis-Tris, 100 mM acetate.
Setting [4] is: ITC at 35 °C, pH 7.2, 100 mM NaCl.

On to “p53 pThr55: p53(35–59) phosphorylated at Thr55”, for which the Ka entry in experiment [1] was “(1.30 ± 0.05) × 10^6 M^−1”. With “p53 F54S: p53(35–59) with mutation of Phe54 to serine”, the “reduction in the association constant compared with wild-type p53 peptide” value in experiment [1] (setting [4]) was determined as 55%. The Ka entry in experiment [1] is recorded as “(0.53 ± 0.09) × 10^6 M^−1”. As to “p53 D48N: p53(35–59) with mutation of Asp48 to asparagine”, the Ka result in experiment [1] is reported as “(0.60 ± 0.08) × 10^6 M^−1”. For the substance “W53A/F54A double mutation of p53(25–65): W53A/F54A double mutation of p53(25–65)”, the “Taz2 binding of double mutant” value in the experiment with p300 Taz2 is “abrogated Taz2 binding”. “p53 W53Q: p53(35–59) with Trp53 mutated to glutamine (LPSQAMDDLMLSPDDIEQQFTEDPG)”: the “detectable binding to Taz2” value in experiment [1] (ITC at 35 °C) is on record as “loss of detectable binding”.

For the substance “p53 I50A: p53(35–59) mutant peptide I50A”, the “weaker binding to Taz2 than wild-type” value in experiment [1] (setting [4]) was determined as 3 fold. Besides, the Ka result in experiment [1] is recorded as “(0.31 ± 0.01) × 10^6 M^−1”. Turning to “p53 TAD1: first transactivation subdomain of p53 (residues 1–39)”, in the experiment on CBP Taz2, the “binding to CBP Taz2” value is on record as “high affinity”. Further, in the experiment on p300 Taz2, the “effect of phosphorylation on Taz2 binding” value (shortened to “effect of phosphorylation”) is “increased its affinity for p300 Taz2”. Turning to “p53 TAD2: second transactivation subdomain of p53 (residues 40–61)”, in the experiment on CBP Taz2, the “binding to CBP Taz2” value is recorded as “high affinity”. In addition, the “effect of phosphorylation” value with p300 Taz2 is “unaffected by phosphorylation”. Further, the “affinity for Taz2” value with p300 Taz2 (p53 TAD2 compared with p53 TAD1) is “tighter than that of p53 TAD1”. Turning to “p53 L45A: p53(35–59) mutant peptide L45A”, the Ka result in experiment [1] is recorded as “(0.91 ± 0.04) × 10^6 M^−1”.

For “p53 E51Q: p53(35–59) with mutation of Glu51 to glutamine”, the Ka entry in experiment [1] is “(0.56 ± 0.13) × 10^6 M^−1”. Still for that read-out and setting: the entry for “p53 T55A: p53(35–59) mutant peptide T55A” is “(1.16 ± 0.10) × 10^6 M^−1”. Take “p53(1–57): p53(1–57), both TAD subdomains”: in the experiment with p300 Taz2, the “overall affinity for Taz2 relative to single subdomains” value is “overall affinity higher than that of either interaction alone”. With “p53(35–59): p53 TAD2 peptide, residues 35–59, synthesized by solid-phase method or expressed as GST fusion”, the “affinity in 100 mM acetate vs 100 mM NaCl” value in the experiment on Taz2 domain of p300 [2] is listed as “significantly higher”. In addition, the “reduction in binding affinity vs wild-type Taz2” value in the experiment with Taz2 R1731A is listed as 3 fold. Further, the “effect of phosphorylation” value with p300 Taz2 is recorded as “does not significantly affect binding”. For the same substance, the “effect of Taz2 mutation on binding” value with Taz2 S1741D is listed as “did not affect binding”. As to “p53 M40A: p53(35–59) mutant peptide M40A”, the Ka result in experiment [1] is given as “(1.32 ± 0.05) × 10^6 M^−1”. The same measure, in the same setting: next, “p53 Q52E: p53(35–59) mutant peptide Q52E”: “(1.29 ± 0.35) × 10^6 M^−1”. For the substance “p53(1–39): p53 TAD1, residues 1–39 [reference compound]”, in the experiment on Taz2 domain of p300 [3], the “pH dependence of affinity for Taz2, pH 5.9 to 6.8” value was “not dependent upon pH between pH 5.9 and 6.8”.
